Test results reported in patent US20260055103A1, “2,3,4,9-TETRAHYDRO-1H-PYRIDO[3,4-B]INDOLE DERIVATIVES AS ESTROGEN RECEPTOR MODULATORS FOR THE TREATMENT OF CANCER” (Olema Pharmaceuticals, Inc., priority 2022, published 2026).

These compounds were tested against T1, estrogen receptor (Homo sapiens, UniProt P03372) (assay: Alkaline phosphatase (AP) assay in ECC-1 cells, agonist mode (no E2) and antagonist mode (500 pM E2)). Conditions: 3 days, AP activity normalized to 500 pM E2 alone, agonist mode without E2, antagonist mode with 500 pM E2.
T1 construct: endogenous in cells; host or cells: ECC-1 cells
T1 sequence (P03372 1-595): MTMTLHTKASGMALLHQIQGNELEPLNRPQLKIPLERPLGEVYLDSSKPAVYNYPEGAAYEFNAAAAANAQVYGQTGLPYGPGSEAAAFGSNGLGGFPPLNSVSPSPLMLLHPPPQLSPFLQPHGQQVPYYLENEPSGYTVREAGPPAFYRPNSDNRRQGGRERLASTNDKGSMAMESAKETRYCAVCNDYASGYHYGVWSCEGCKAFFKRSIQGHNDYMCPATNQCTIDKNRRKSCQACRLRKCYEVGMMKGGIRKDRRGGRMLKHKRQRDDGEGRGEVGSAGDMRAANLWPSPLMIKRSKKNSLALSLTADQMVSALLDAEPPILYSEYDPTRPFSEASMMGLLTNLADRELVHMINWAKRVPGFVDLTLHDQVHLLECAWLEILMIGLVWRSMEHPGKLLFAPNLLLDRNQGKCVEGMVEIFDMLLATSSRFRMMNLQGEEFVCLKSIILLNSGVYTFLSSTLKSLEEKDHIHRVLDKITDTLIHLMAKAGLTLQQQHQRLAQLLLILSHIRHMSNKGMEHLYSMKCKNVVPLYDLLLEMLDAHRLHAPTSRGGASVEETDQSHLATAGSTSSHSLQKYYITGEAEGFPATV
Assay type: cell-based
Description: ECC-1 cells were trypsinized and resuspended in hormone-depleted media and plated at a density of 15 k cells per well into a 96-well plate for at least 4 hours. Cells were treated with test compounds in the absence of E2 (for agonist mode) or in the presence of 500 pM E2 (for antagonist mode) for 3 days and plates were subsequently frozen at −80° C. Thawed plates were incubated with a chromogenic substrate of AP, p-nitrophenyl phosphate (Thermo Fisher Scientific), for 40 minutes at 42° C., and absorbances were read at 405 nm. AP activity was normalized to the activity of 500 pM E2 alone.
The compound numbers correspond to the compound numbers of Table 1 and 2. Compounds having an activity designated as “+” provided estrogen receptor agonism having (i) at least 80% increase in the E2-normalized signal in the AP assay (agonist mode) and (ii) no more than 80% reduction in the E2-normalized signal in the AP assay (antagonist mode). Compounds having an activity designated as “++” provided estrogen receptor antagonism having (i) between 10% and 80% increase in the E2-normalized signal in the AP assay (agonist mode) and (ii) between 10% and 80% reduction in the E2-normalized signal in the AP assay (antagonist mode).

| SMILES | Activity (estrogen receptor modulation, agonism and antagonism) |
| --- | --- |
| C[C@@H]1Cc2c([nH]c3ccccc23)[C@@H](c2cnc(C[C@H]3CCN(CCCF)C3)s2)N1CC(F)F [Example I-30, 5-((1S,3R)-2-(2,2-difluoroethyl)-3-methyl-2,3,4,9-tetrahydro-1H-pyrido[3,4-b]indol-1-yl)-2-(((R)-1-(3-fluoropropyl)pyrrolidin-3-yl)methyl)thiazole] | ++ (estrogen receptor antagonism having (i) between 10% and 80% increase in the E2-normalized signal in the AP assay (agonist mode) and (ii) between 10% and 80% reduction in the E2-normalized signal in the AP assay (antagonist mode)) |
| C[C@@H]1Cc2c([nH]c3ccccc23)[C@@H](c2ncc(CC3CN(CCCF)C3)s2)N1CC(F)F [Example I-31] | ++ (estrogen receptor antagonism having (i) between 10% and 80% increase in the E2-normalized signal in the AP assay (agonist mode) and (ii) between 10% and 80% reduction in the E2-normalized signal in the AP assay (antagonist mode)) |
| CCCN1CC(Cc2cnc([C@@H]3c4[nH]c5ccccc5c4C[C@@H](C)N3CC(F)F)s2)C1 [Example I-32, 2-[(1S,3R)-2-(2,2-difluoroethyl)-3-methyl-1,3,4,9-tetrahydropyrido[3,4-b]indol-1-yl]-5-[(1-propylazetidin-3-yl)methyl]thiazole] | ++ (estrogen receptor antagonism having (i) between 10% and 80% increase in the E2-normalized signal in the AP assay (agonist mode) and (ii) between 10% and 80% reduction in the E2-normalized signal in the AP assay (antagonist mode)) |
| C[C@@H]1Cc2c([nH]c3ccccc23)[C@@H](c2cnc(C[C@H]3CCN(CCCF)C3)s2)N1CC(F)(F)F [Example I-33, 2-(((R)-1-(3-fluoropropyl)pyrrolidin-3-yl)methyl)-5-((1S,3R)-3-methyl-2-(2,2,2-trifluoroethyl)-2,3,4,9-tetrahydro-1H-pyrido[3,4-b]indol-1-yl)thiazole] | ++ (estrogen receptor antagonism having (i) between 10% and 80% increase in the E2-normalized signal in the AP assay (agonist mode) and (ii) between 10% and 80% reduction in the E2-normalized signal in the AP assay (antagonist mode)) |
| C[C@@H]1Cc2c([nH]c3ccccc23)[C@@H](c2ncc(CC3CN(CCCF)C3)s2)N1CC(F)(F)F [Example I-34, 5-[[1-(3-fluoropropyl)azetidin-3-yl]methyl]-2-[(1S,3R)-3-methyl-2-(2,2,2-trifluoroethyl)-1,3,4,9-tetrahydropyrido[3,4-b]indol-1-yl]thiazole] | ++ (estrogen receptor antagonism having (i) between 10% and 80% increase in the E2-normalized signal in the AP assay (agonist mode) and (ii) between 10% and 80% reduction in the E2-normalized signal in the AP assay (antagonist mode)) |
| C[C@@H]1Cc2c([nH]c3ccccc23)[C@@H](c2ncc(CC3CN(CCC(F)F)C3)s2)N1CC(F)F [Example I-35, 2-[(1S,3R)-2-(2,2-difluoroethyl)-3-methyl-1,3,4,9-tetrahydropyrido[3,4-b]indol-1-yl]-5-[[1-(3,3-difluoropropyl)azetidin-3-yl]methyl]thiazole] | ++ (estrogen receptor antagonism having (i) between 10% and 80% increase in the E2-normalized signal in the AP assay (agonist mode) and (ii) between 10% and 80% reduction in the E2-normalized signal in the AP assay (antagonist mode)) |
| C[C@@H]1Cc2c([nH]c3ccccc23)[C@@H](c2cnc(C[C@H]3CCN(CCCF)C3)s2)N1CC(F)(F)CO [Example I-36, 2,2-difluoro-3-[(1S,3R)-1-[2-[[(3R)-1-(3-fluoropropyl)pyrrolidin-3-yl]methyl]thiazol-5-yl]-3-methyl-1,3,4,9-tetrahydropyrido[3,4-b]indol-2-yl]propan-1-ol] | + (estrogen receptor agonism having (i) at least 80% increase in the E2-normalized signal in the AP assay (agonist mode) and (ii) no more than 80% reduction in the E2-normalized signal in the AP assay (antagonist mode)) |
| CCCN1CC(Cc2cnc([C@@H]3c4[nH]c5ccccc5c4C[C@@H](C)N3CC(F)(F)F)s2)C1 [Example I-37, 2-[(1S,3R)-3-methyl-2-(2,2,2-trifluoroethyl)-1,3,4,9-tetrahydropyrido[3,4-b]indol-1-yl]-5-[(1-propylazetidin-3-yl)methyl]thiazole] | ++ (estrogen receptor antagonism having (i) between 10% and 80% increase in the E2-normalized signal in the AP assay (agonist mode) and (ii) between 10% and 80% reduction in the E2-normalized signal in the AP assay (antagonist mode)) |
| C[C@@H]1Cc2c([nH]c3ccccc23)[C@@H](c2cnc(CC3CN(CCCF)C3)s2)N1CC(F)(F)F [Example I-38, 2-[[1-(3-fluoropropyl)azetidin-3-yl]methyl]-5-[(1S,3R)-3-methyl-2-(2,2,2-trifluoroethyl)-1,3,4,9-tetrahydropyrido[3,4-b]indol-1-yl]thiazole] | ++ (estrogen receptor antagonism having (i) between 10% and 80% increase in the E2-normalized signal in the AP assay (agonist mode) and (ii) between 10% and 80% reduction in the E2-normalized signal in the AP assay (antagonist mode)) |
| C[C@@H]1Cc2c([nH]c3ccccc23)[C@@H](c2ncc(CC3CN(CCC(F)F)C3)s2)N1CC(F)(F)F [Example I-39, 5-[[1-(3,3-difluoropropyl)azetidin-3-yl]methyl]-2-[(1S,3R)-3-methyl-2-(2,2,2-trifluoroethyl)-1,3,4,9-tetrahydropyrido[3,4-b]indol-1-yl]thiazole] | ++ (estrogen receptor antagonism having (i) between 10% and 80% increase in the E2-normalized signal in the AP assay (agonist mode) and (ii) between 10% and 80% reduction in the E2-normalized signal in the AP assay (antagonist mode)) |
| C[C@@H]1Cc2c([nH]c3ccccc23)[C@@H](c2cnc(CC3CN(CCCF)C3)s2)N1CC(F)(F)CO [Example I-40, 2,2-difluoro-3-[(1S,3R)-1-[2-[[1-(3-fluoropropyl)azetidin-3-yl]methyl]thiazol-5-yl]-3-methyl-1,3,4,9-tetrahydropyrido[3,4-b]indol-2-yl]propan-1-ol] | +++ (estrogen receptor antagonism (i) with pIC50 greater than 7.5 and at least a 10% reduction in the E2-normalized signal in the AP assay (antagonist mode); and no more than 10% increase in E2-normalized signal in the AP assay (agonist mode)) |
| C[C@@H]1Cc2c([nH]c3ccccc23)[C@@H](c2cnc(C[C@@H]3CCN(CCCF)C3)s2)N1CC(F)F [Example I-41, 5-[(1S,3R)-2-(2,2-difluoroethyl)-3-methyl-1,3,4,9-tetrahydropyrido[3,4-b]indol-1-yl]-2-[[(3S)-1-(3-fluoropropyl)pyrrolidin-3-yl]methyl]thiazole] | ++ (estrogen receptor antagonism having (i) between 10% and 80% increase in the E2-normalized signal in the AP assay (agonist mode) and (ii) between 10% and 80% reduction in the E2-normalized signal in the AP assay (antagonist mode)) |
| C[C@@H]1Cc2c([nH]c3ccccc23)[C@@H](c2cnc(C[C@@H]3CCN(CCCF)C3)s2)N1CC(F)(F)CO [Example I-42] | ++ (estrogen receptor antagonism having (i) between 10% and 80% increase in the E2-normalized signal in the AP assay (agonist mode) and (ii) between 10% and 80% reduction in the E2-normalized signal in the AP assay (antagonist mode)) |
| C[C@@H]1Cc2c([nH]c3ccccc23)[C@@H](c2cnc(C[C@@H]3CCN(CCCF)C3)s2)N1CC(C)(C)F [Example I-43] | ++ (estrogen receptor antagonism having (i) between 10% and 80% increase in the E2-normalized signal in the AP assay (agonist mode) and (ii) between 10% and 80% reduction in the E2-normalized signal in the AP assay (antagonist mode)) |
| C[C@@H]1Cc2c([nH]c3ccccc23)[C@@H](c2ncc(CC3CN(CCCF)C3)s2)N1CC(F)(F)CO [Example I-44, 2,2-difluoro-3-[(1S,3R)-1-[5-[[1-(3-fluoropropyl)azetidin-3-yl]methyl]thiazol-2-yl]-3-methyl-1,3,4,9-tetrahydropyrido[3,4-b]indol-2-yl]propan-1-ol] | ++ (estrogen receptor antagonism having (i) between 10% and 80% increase in the E2-normalized signal in the AP assay (agonist mode) and (ii) between 10% and 80% reduction in the E2-normalized signal in the AP assay (antagonist mode)) |
